Assay results taken from patent US20240239784A1, “INDOLE COMPOUNDS AND METHODS OF USE” (GENZYME CORPORATION, priority 2021, published 2024).

These compounds were tested on NBD1 (assay: Aggregation analysis of NBD1 thermal stability by differential static light scattering (DSLS)). Details: compound at 100 μM; ΔTagg versus DMSO control.
Type: binding, Human
Experimental: Purified recombinant NBD1 was produced using previously described methods (A. Schmidt, J. L. Mendoza, P. J. Thomas (2011) Biochemical and Biophysical Approaches to Probe CFTR Structure (365-376) M. D. Amaral, K. Kunzelmann (eds.), Cysic Fibrosis, Methods in Molecular Biology 741, Springer Science+Business Media). The effect of test compounds on thermal stability of NBD1 was evaluated by differential static light scattering (DSLS) using the Harbinger Stargazer-384 instrument (Epiphyte Three, Toronto, Canada). Test compounds were dissolved and diluted to desired concentrations in 100% DMSO. The compounds or DMSO controls (100 nL) were stamped into wells of a […] low volume optical plate (Corning Inc., Corning, NY) using the Echo 555 acoustic liquid handler (Labcyte Inc., San Jose, CA).
NBD1 protein was diluted to 0.2 mg/ml in S200 buffer (50 mM Tris-HCl, 150 mM NaCl, 5 mM MgCl2, 2 mM ATP, 2 mM DTT, pH7.6) containing 1% glycerol. 10 uL of protein solution was aliquoted into the 384-well plate harboring the test compounds and 10 uL mineral oil was overlayed onto the protein solution, using the epMotion robotic liquid handler (Eppendorf North America, Hauppauge, NY). After placing into the Stargazer instrument, the plate was heated at 1° C. per minute to 70° C. Images were captured from 25° C. to 70° C. every 0.5° C. At the end of the experiment run, instrument software integrated image files and analyzed data automatically. A […] regression curve was generated for each well, representing the increase in light scattering over time. A temperature of aggregation (Tagg) was calculated based on the inflection point of the curve. To better compare data across experiments the average Tagg for DMSO control wells was calculated and subtracted from values for wells containing compounds to obtain a “ΔTagg” value. These ΔTagg values reflect stabilizing efficacy of the compounds.

| Structure (SMILES) | DSLS NBD1/3D Human Stability delta-T (° C.) @ 100 (μM) |
| --- | --- |
| C[S+]([O-])c1c(Oc2cccc(-c3ncc(C(O)c4ccccc4)[nH]3)c2)ccc2[nH]ccc12 (stereo not shown) [Example 55, (2-(3-((4-(Methylsulfinyl)-1H-indol-5-yl)oxy)phenyl)-1H-imidazol-5-yl)(phenyl)methanol] | B (4-8° C.) |
| CS(=O)(=O)NC(=O)Cc1c(Oc2cccc(-c3nnc(Cc4ccccc4)[nH]3)c2)ccc2[nH]ccc12 [Example 56, 2-(5-(3-(5-Benzyl-4H-1,2,4-triazol-3-yl)phenoxy)-1H-indol-4-yl)-N-(methylsulfonyl)acetamide] | A (T ≥8° C.) |
| Cn1nc(-c2cccc(Oc3ccc4[nH]ccc4c3C(N)=O)c2)nc1Cc1ccccc1 [Example 57, 5-(3-(5-Benzyl-1-methyl-1H-1,2,4-triazol-3-yl)phenoxy)-1H-indole-4-carboxamide] | B (4-8° C.) |
| O=C(O)CCc1c(Oc2cccc(-c3nnc(Cc4ccccc4)[nH]3)c2)ccc2[nH]ccc12 [Example 58, 3-(5-(3-(5-Benzyl-4H-1,2,4-triazol-3-yl)phenoxy)-1H-indol-4-yl)propanoic acid] | A (T ≥8° C.) |
| CS(=O)(=O)NC(=O)CCc1c(Oc2cccc(-c3nnc(Cc4ccccc4)[nH]3)c2)ccc2[nH]ccc12 [Example 59, 3-(5-(3-(5-Benzyl-4H-1,2,4-triazol-3-yl)phenoxy)-1H-indol-4-yl)-N-(methylsulfonyl)propanamide] | B (4-8° C.) |
| O=C(Cc1c(Oc2cccc(-c3nnc(Cc4ccccc4)[nH]3)c2)ccc2[nH]ccc12)NS(=O)(=O)C(F)(F)F [Example 60, 2-(5-(3-(5-Benzyl-4H-1,2,4-triazol-3-yl)phenoxy)-1H-indol-4-yl)-N-((trifluoromethyl)sulfonyl)acetamide] | A (T ≥8° C.) |
| COCCS(=O)(=O)c1c(Oc2cccc(-c3ncc(C(C)(O)c4ccccc4)[nH]3)c2)c(F)cc2[nH]ccc12 (stereo not shown) [Example 61, 1-(2-(3-((6-Fluoro-4-((2-methoxyethyl)sulfonyl)-1H-indol-5-yl)oxy)phenyl)-1H-imidazol-5-yl)-1-phenylethan-1-ol] | B (4-8° C.) |
| COCC[S+]([O-])c1c(Oc2cccc(-c3ncc(C(C)(O)c4ccccc4)[nH]3)c2)c(F)cc2[nH]ccc12 (stereo not shown) [Example 62, 1-(2-(3-((6-Fluoro-4-((2-methoxyethyl)sulfinyl)-1H-indol-5-yl)oxy)phenyl)-1H-imidazol-5-yl)-1-phenylethan-1-ol] | B (4-8° C.) |
| CNCCS(=O)(=O)c1c(Oc2cccc(-c3ncc(C(C)(O)c4ccccc4)[nH]3)c2)c(F)cc2[nH]ccc12 (stereo not shown) [Example 64, 1-(2-(3-((6-Fluoro-4-((2-(methylamino)ethyl)sulfonyl)-1H-indol-5-yl)oxy)phenyl)-1H-imidazol-5-yl)-1-phenylethan-1-ol] | A (T ≥8° C.) |
| CC(=O)c1c(Oc2cccc(-c3nc(C(C)(O)c4ccccc4)c[nH]3)c2)c(F)cc2[nH]ccc12 (stereo not shown) [Example 65, 1-(6-Fluoro-5-(3-(4-(1-hydroxy-1-phenylethyl)-1H-imidazol-2-yl)phenoxy)-1H-indol-4-yl)ethan-1-one] | A (T ≥8° C.) |
| CC(O)c1c(Oc2cccc(-c3nc(C(C)(O)c4ccccc4)c[nH]3)c2)c(F)cc2[nH]ccc12 (stereo not shown) [Example 66, 1-(2-(3-((6-Fluoro-4-(1-hydroxyethyl)-1H-indol-5-yl)oxy)phenyl)-1H-imidazol-4-yl)-1-phenylethan-1-ol] | A (T ≥8° C.) |
| O=C(O)c1c(Oc2cccc(-c3nc(C(O)(c4ccccc4)C(F)(F)F)n[nH]3)c2)ccc2[nH]ccc12 (stereo not shown) [Example 67, 5-(3-(3-(2,2,2-Trifluoro-1-hydroxy-1-phenylethyl)-1H-1,2,4-triazol-5-yl)phenoxy)-1H-indole-4-carboxylic acid] | C (≤4° C.) |
| CC(O)(c1ccccc1)c1cnc(-c2cccc(Oc3cc(F)c4[nH]ccc4c3)c2)[nH]1 (stereo not shown) [Example 69, 1-(2-(3-((7-Fluoro-1H-indol-5-yl)oxy)phenyl)-1H-imidazol-5-yl)-1-phenylethan-1-ol] | B (4-8° C.) |
| CN1C(=O)SC(Cc2c(Oc3ccc(F)c(-c4nc(C(C)(O)c5ccccc5)c[nH]4)c3)c(F)cc3[nH]ccc23)C1=O (stereo not shown) [Example 70, 5-((6-fluoro-5-(4-fluoro-3-(4-(1-hydroxy-1-phenylethyl)-1H-imidazol-2-yl)phenoxy)-1H-indol-4-yl)methyl)-3-methylthiazolidine-2,4-dione] | B (4-8° C.) |
| CC(O)(c1ccccc1)c1cnc(-c2cc(Oc3c(F)cc4[nH]ccc4c3CCC(=O)O)ccc2F)[nH]1 (stereo not shown) [Example 71, 3-(6-Fluoro-5-(4-fluoro-3-(5-(1-hydroxy-1-phenylethyl)-1H-imidazol-2-yl)phenoxy)-1H-indol-4-yl)propanoic acid] | A (T ≥8° C.) |
| CS(=O)(=O)c1c(Oc2ccc(F)c(-c3nc(C(OCCO)c4ccccc4)c[nH]3)c2)c(F)cc2[nH]ccc12 (stereo not shown) [Example 72, 2-((2-(2-Fluoro-5-((6-fluoro-4-(methylsulfonyl)-1H-indol-5-yl)oxy)phenyl)-1H-imidazol-4-yl)(phenyl)methoxy)ethan-1-ol] | A (T ≥8° C.) |
| CS(=O)(=O)c1c(Oc2ccc(F)c(-c3nc(C(OCC(=O)O)c4ccccc4)c[nH]3)c2)c(F)cc2[nH]ccc12 (stereo not shown) [Example 73, 2-((2-(2-Fluoro-5-((6-fluoro-4-(methylsulfonyl)-1H-indol-5-yl)oxy)phenyl)-1H-imidazol-4-yl)(phenyl)methoxy)acetic acid] | A (T ≥8° C.) |
| Cc1c(Oc2ccc(F)c(-c3ncc(C(C)(O)c4ccccc4)[nH]3)c2)c(F)cc2[nH]cc(CC(=O)O)c12 (stereo not shown) [Example 74, 2-(6-Fluoro-5-(4-fluoro-3-(5-(1-hydroxy-1-phenylethyl)-1H-imidazol-2-yl)phenoxy)-4-methyl-1H-indol-3-yl)acetic acid] | B (4-8° C.) |
| CC(C)(c1ccccc1)c1cnc(-c2cc(Oc3c(F)cc4[nH]ccc4c3CCS(N)(=O)=O)ccc2F)[nH]1 [Example 75, 2-(6-Fluoro-5-(4-fluoro-3-(5-(2-phenylpropan-2-yl)-1H-imidazol-2-yl)phenoxy)-1H-indol-4-yl)ethane-1-sulfonamide] | B (4-8° C.) |
| CC(C(=O)O)(c1ccccc1)c1c[nH]c(-c2cc(Oc3c(F)cc4[nH]ccc4c3F)ccc2F)n1 (stereo not shown) [Example 76, 2-(2-(5-((4,6-Difluoro-1H-indol-5-yl)oxy)-2-fluorophenyl)-1H-imidazol-4-yl)-2-phenylpropanoic acid] | B (4-8° C.) |
| Cc1c(Oc2ccc(F)c(-c3nc(C(C)(CO)c4ccccc4)c[nH]3)c2)c(F)cc2[nH]ccc12 (stereo not shown) [Example 77, 2-(2-(2-Fluoro-5-((6-fluoro-4-methyl-1H-indol-5-yl)oxy)phenyl)-1H-imidazol-4-yl)-2-phenylpropan-1-ol] | B (4-8° C.) |
| CC(C)(O)c1nc(-c2cc(Oc3c(F)cc4[nH]ccc4c3S(C)(=O)=O)ccc2F)[nH]c1Cc1ccccc1 [Example 79, 2-(5-Benzyl-2-(2-fluoro-5-((6-fluoro-4-(methylsulfonyl)-1H-indol-5-yl)oxy)phenyl)-1H-imidazol-4-yl)propan-2-ol] | B (4-8° C.) |
